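96-well plates; 48 h exposure; 5 concentrations. Endpoints by linear interpolation between flanking doses. Not reached: highest tested concentration assigned. GI50: concentration for 50% inhibition of growth.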 Calls of active or inactive are those of the source. Cut-off read from the data, not from the text of the source: active = GI50 up to about 1.1 µM and inactive = higher.
Legend:
Experiment in all cases: growth of human tumour cells (NCI), 48 h
OVCAR-5 = system: OVCAR-5
COLO 205 = system: COLO 205
MCF7 = system: MCF7
OVCAR-4 = system: OVCAR-4
HOP-62 = system: HOP-62
EKVX = system: EKVX
M14 = system: M14
Malme-3M = system: Malme-3M
MDA-MB-435 = system: MDA-MB-435
SF-539 = system: SF-539
TK-10 = system: TK-10
SK-MEL-28 = system: SK-MEL-28
OVCAR-8 = system: OVCAR-8
SNB-75 = system: SNB-75
SF-295 = system: SF-295
T47D = system: T47D
SK-OV-3 = system: SK-OV-3
SR = system: SR
RXF 393 = system: RXF 393

Compound	GI50 (OVCAR-5)	GI50 (COLO 205)	GI50 (MCF7)	GI50 (OVCAR-4)	GI50 (HOP-62)	GI50 (EKVX)	GI50 (M14)	GI50 (Malme-3M)	GI50 (MDA-MB-435)	GI50 (SF-539)	GI50 (TK-10)	GI50 (SK-MEL-28)	GI50 (OVCAR-8)	GI50 (SNB-75)	GI50 (SF-295)	GI50 (T47D)	GI50 (SK-OV-3)	GI50 (SR)	GI50 (RXF 393)
COC1C(OC(=O)c2ccc(C)[nH]2)C(O)C(Oc2ccc3c(O)c(NC(=O)c4ccc(O)c(CC=C(C)C)c4)c(=O)oc3c2Cl)OC1(C)C (centres undefined)	15.9 µM (inactive)	15.9 µM (inactive)	18.4 µM (inactive)	26.6 µM (inactive)	15.5 µM (inactive)	18.7 µM (inactive)	16 µM (inactive)	15.5 µM (inactive)	30.2 µM (inactive)	18 µM (inactive)	55.3 µM (inactive)	16.3 µM (inactive)	17.9 µM (inactive)	19.1 µM (inactive)	17.7 µM (inactive)	15.9 µM (inactive)	20.4 µM (inactive)	22.5 µM (inactive)	–
COc1ccc(-c2cc3c(nn2)-c2ccccc2C3=O)cc1	> 10 µM (inactive)	> 10 µM (inactive)	8.93 µM (inactive)	> 10 µM (inactive)	> 10 µM (inactive)	> 10 µM (inactive)	> 10 µM (inactive)	> 10 µM (inactive)	> 10 µM (inactive)	> 10 µM (inactive)	> 10 µM (inactive)	> 10 µM (inactive)	> 10 µM (inactive)	0.845 µM (active)	> 10 µM (inactive)	> 10 µM (inactive)	> 10 µM (inactive)	–	> 10 µM (inactive)
C/C(=C\CO)CC[C@@H]1[C@@]2(C)CCCC(C)(C)[C@@H]2CC[C@@]1(C)O	23.1 µM (inactive)	17.7 µM (inactive)	17.1 µM (inactive)	17.3 µM (inactive)	–	24.8 µM (inactive)	23.4 µM (inactive)	19.7 µM (inactive)	18.3 µM (inactive)	18.1 µM (inactive)	17.5 µM (inactive)	22.3 µM (inactive)	16.2 µM (inactive)	17.7 µM (inactive)	17.6 µM (inactive)	18.2 µM (inactive)	21.3 µM (inactive)	–	17.6 µM (inactive)
NC(=O)c1sc2nc3ccccc3n2c1N	> 100 µM (inactive)	> 100 µM (inactive)	> 100 µM (inactive)	> 100 µM (inactive)	32.8 µM (inactive)	67.5 µM (inactive)	> 100 µM (inactive)	> 100 µM (inactive)	> 100 µM (inactive)	21.5 µM (inactive)	42.7 µM (inactive)	> 100 µM (inactive)	65.8 µM (inactive)	29.4 µM (inactive)	23.8 µM (inactive)	> 100 µM (inactive)	27.2 µM (inactive)	–	21.1 µM (inactive)
CC1(C)C=C(/C=C2/N(S(=O)(=O)C(F)(F)F)C(/C=C3/N(S(=O)(=O)C(F)(F)F)C(C)(C#N)CC3(C)C)=CC2(C)C)N=C1/C=C1/CC(C)(C)C(=O)N1 (centres undefined)	57.5 µM (inactive)	14.2 µM (inactive)	9.29 µM (inactive)	7.38 µM (inactive)	9.44 µM (inactive)	8.45 µM (inactive)	29.3 µM (inactive)	–	15 µM (inactive)	24.8 µM (inactive)	71.9 µM (inactive)	51.2 µM (inactive)	4.57 µM (inactive)	61.5 µM (inactive)	14.3 µM (inactive)	6.07 µM (inactive)	45.7 µM (inactive)	2.8 µM (inactive)	18.6 µM (inactive)
CCOC(=O)c1cc(C(O)P2(=O)N(CC(C)(C)C)[C@@H]3CCCC[C@H]3N2CC(C)(C)C)cn1C(=O)OC(C)(C)C (some centres undefined)	17.3 µM (inactive)	17.3 µM (inactive)	18.7 µM (inactive)	13.9 µM (inactive)	13.7 µM (inactive)	20.5 µM (inactive)	16.2 µM (inactive)	13.7 µM (inactive)	13.9 µM (inactive)	–	22.6 µM (inactive)	16.6 µM (inactive)	24.8 µM (inactive)	–	15 µM (inactive)	15.1 µM (inactive)	20 µM (inactive)	10.2 µM (inactive)	12 µM (inactive)
CC1=C/C(=N\O)C(C(O)(C(F)(F)F)C(F)(F)F)C(C)(C)C1 (centres undefined)	> 10 µM (inactive)	> 10 µM (inactive)	> 10 µM (inactive)	> 10 µM (inactive)	> 10 µM (inactive)	> 10 µM (inactive)	> 10 µM (inactive)	> 10 µM (inactive)	> 10 µM (inactive)	> 10 µM (inactive)	> 10 µM (inactive)	> 10 µM (inactive)	> 10 µM (inactive)	3.49 µM (inactive)	> 10 µM (inactive)	> 10 µM (inactive)	> 10 µM (inactive)	> 10 µM (inactive)	–
